Assay results: patent publication US9719982B2, “Devices comprising muscle thin films and uses thereof in high throughput assays for determining contractile function” (President and Fellows of Harvard College, priority 2009, dated 2017)
Positions of bridges follow the written chain, without caps; N, C: chain ends. No end group written: not given here.

Tests used:
[1] = system: Human umbilical artery vascular smooth muscle; test: Vascular muscular thin film (vMTF) contractility assay, films adhered to PTFE coated posts; type: cell-based
Method: Human umbilical artery vascular smooth muscle was seeded on thin films at 300 cells/mm^2 in complete M199 medium (M199 supplemented with 10% fetal bovine serum (FBS), penicillin, streptomycin, L-glutamine, glucose and vitamin B12). The tissue was cultured in complete M199 for 48 hours, with a single media change at 24 hours. After 48 hours, the cells were serum starved for an additional 48 hours (M199 supplemented with penicillin, streptomycin, L-glutamine, glucose and vitamin B12, but no FBS).
Muscle thin films were transferred to fresh Tyrode's solution in the testing dish (FIG. 1), which is maintained at 37° C. by a peltier heating system. Films were adhered to Teflon coated posts (FIG. 3) by moving them into close contact using tweezers. The films were imaged using a stereomicroscope outfitted with fluorescent imaging capability. Both brightfield and fluorescent images were captured every thirty seconds. In the experiment shown in FIG. 4, four films were treated with 50 nM endothelin-1 followed by 100 μM HA-1077 (fasudil).
Quantification and analysis of thin film motion was performed using ImageJ (NIH) and MATLAB software. Thresholded fluorescent images (FIG. 4 B) were fit to circles whose radii of curvature could be measured (FIG. 4C). Using elasticity theory, the contraction stress necessary to induce the measured changes in curvature were calculated (FIG. 4D).
Human umbilical artery VSMCs were engineered as anisotropic monolayers aligned parallel to the long axis of the MTF. The vMTFs were adhered to PTFE coated posts via hydrophobic interaction with the PDMS. This arrangement allowed multiple vMTFs to be viewed concurrently. Here, eight vMTFs were tested using this assay. The fluorosphere doped PDMS could be viewed using fluorescent stereomicroscopy. In this arrangement, the films are easily approximated as circular arcs.
The vMTFs were treated with the endothelium-produced vasoconstrictor endothelin-1 followed by the rho-kinase inhibitor HA-1077, in order to calculate all of the relevant stress states of arterial muscle. […] This value represents the resting tension of the tissue. […] The HA-1077 dosage is sufficient to inhibit all myosin light chain phosphorylation, so this value represents the residual stress, or the stress generated by the cytoskeletal elements not involved in the contractile apparatus, but which remains after all other loads are removed.

[2] = system: vascular smooth muscle cells; test: Horizontal muscular thin film (hMTF) contractility assay with vascular smooth muscle cells; type: cell-based
Method: FIG. 12 contrasts the use of fluorescent microscopy and the use of brightfield stereo microscopy of vascular smooth muscle (VSM) horizontal MTFs during an assay of the invention as described in Example 5. The top row depicts fluorescent microscopy photographs of VSM horizontal MTFs comprising fluorescent beads embedded in the PDMS film. […] (A) Photographs taken 5 minutes after the start of the experiment, the films are slightly bent up from the glass due to the initial contraction of VSM. (B) Photographs taken 20 minutes after addition of the vasoconstrictor (Endothilin-1), which causes the VSM to contract and the films to bend up from the glass. […] Actuation and observation of multiple MTFs was carried out in a physiologic solution (e.g., normal Tyrodes solution). The horizontal […]) fabricated with vascular smooth muscle cells in the presence of fluorescent beads were treated with the endothelium-produced vasoconstrictor endothelin-1 (ET-1) followed by the rho-kinase inhibitor HA-1077. […] Quantification and analysis of thin film motion was performed using ImageJ (NIH) and MATLAB software. From the thresholded fluorescent images the length of the projection of the film on the horizontal plane was tracked throughout the contraction and the radius of curvature calculated. Using elasticity theory, the contraction stress necessary to induce the measured changes in curvature were calculated.

| Compound | change in radius of curvature of vMTFs ([1]; 100 μM HA-1077 following ET-1) | stress after inhibition of contraction (residual stress) ([1]; treatment with 100 μM HA-1077 following 50 nM ET-1) | change in radius of curvature of hMTFs ([2]; 100 mM HA-1077 following ET-1) | effect on VSM horizontal MTFs (FIG. 12C) ([2]; 30 minutes after addition of rho-kinase inhibitor, films lie flat on the glass) | change in radius of curvature of vMTFs ([1]; 50 nM ET-1) | increase in cell generated stress ([1]; vMTFs stimulated with 50 nM ET-1 at time 0, basal stress 17.1±1.7 kPa) | change in radius of curvature of hMTFs ([2]; 50 nM ET-1 at time 0) | effect on VSM horizontal MTFs (FIG. 12B) ([2]; 20 minutes after addition of the vasoconstrictor, films bend up from the glass) |
| --- | --- | --- | --- | --- | --- | --- | --- | --- |
| O=S(=O)(c1cccc2cnccc12)N1CCCNCC1 [HA-1077, fasudil] | rapid increase in radius of curvature | 3.1±0.8 kPa | rapid increase in radius of curvature | completely relax |  |  |  |  |
| endothelin-1 (CSCSSLMDKECVYFCHLDIIW; disulfide 1-15, 3-11; ends not checked; UniProt P05305 53-73, looked up) [ET-1, endothelium-produced vasoconstrictor] |  |  |  |  | decrease in their radii of curvature | 5.06±0.75 kPa | decrease in their radii of curvature | contract |
